Data as given in patent US6166070A, “Kodaistatins A, B, C and D, a process for their production and their use” (Aventis Pharma Deutschland GmbH, priority 1997, dated 2000).
≈ marks a conversion by molar mass, not a printed value. Like-named read-outs stand apart in the source and are kept apart here.

Assays:
[1] = target: T1, rat liver microsomal glucose-6-phosphate translocase (Rattus norvegicus, UniProt F7EWB7); test: inhibition of rat liver microsomal glucose-6-phosphate translocase (colorimetric assay, untreated and Triton X-100 disrupted microsomes); type: biochemical
T1 construct: rat liver microsomal glucose-6-phosphate translocase; from tissue; host or cells: rat liver microsomes (untreated and Triton X-100 disrupted)
T1 sequence (F7EWB7 1-429): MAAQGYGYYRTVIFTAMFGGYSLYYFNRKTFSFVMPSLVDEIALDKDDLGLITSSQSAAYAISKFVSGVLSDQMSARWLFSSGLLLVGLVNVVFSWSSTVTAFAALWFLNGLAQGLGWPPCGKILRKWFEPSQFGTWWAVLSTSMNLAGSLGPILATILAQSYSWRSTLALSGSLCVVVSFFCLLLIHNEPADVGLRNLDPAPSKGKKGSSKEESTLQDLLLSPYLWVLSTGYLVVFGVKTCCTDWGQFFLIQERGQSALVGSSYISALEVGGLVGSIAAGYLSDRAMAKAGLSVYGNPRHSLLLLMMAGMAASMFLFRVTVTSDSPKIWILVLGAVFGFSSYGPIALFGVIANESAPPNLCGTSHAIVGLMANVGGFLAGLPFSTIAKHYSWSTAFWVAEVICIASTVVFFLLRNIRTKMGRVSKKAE
Procedure: (§1) The fermentation is preferably carried out for 40 to 90 hours when an optimal yield of the compounds of the present invention are obtained. It is particularly preferred to carry out the fermentation for 45-70 hours under submerged conditions for example in shake flasks as well as in laboratory fermenters. If desired, antifoam agents like Desmophen® (Polypropylene oxide, Bayer A G, Leverkusen, Germany) may be used in the fermentation process. The progress of fermentation and formation of Kodaistatins A, B, C and D can be detected by measuring the […] in untreated and Triton X-100® disrupted rat liver microsomes in microliter plates at room temperature using a colorimetric assay as described in Methods in Enzymology, 174,58-67 (1989) with some modification and by HPLC In the resulting culture broth, kodaistatin B, C and D are present as minor compounds, and kodaistatins A as a major compound. Thus, the active crude material can be recovered by extraction of mycelium with water miscible solvents such as methanol, ethanol and acetone, and extraction of the culture filtrate with a water immiscible solvent such as ethyl acetate, dichioromethane, chloroform or butanol at pH 5-8 or by hydrophobic interaction chromatography using polymeric resins such as "Diaion HP-20®" (Mitsubishi Chemical Industries Limited, Japan), "Amberlite XAD®" (Rohm and Haas Industries U.S.A.) activated charcoal or ion exchange chromatography at pH 5-8. The preferred method is adsorption over "Diaion HP-20®" followed by desorption of the compound using eluants such as water, methanol, acetone or acetonitrile or combinations thereof. Concentration and lyophilization of the active eluates gives the crude compound.
Kodaistatins A, B, C and D inhibit potently the activity of rat liver microsomal glucose-6-phosphate translocase.

[2] = solubility; type: physicochemical; conditions: solvents in which soluble
[3] = target: T2, phosphatase (Rattus norvegicus, UniProt P43428); test: inhibition of phosphatase activity in detergent-disrupted microsomes; type: biochemical; conditions: for IC50: detergent-disrupted microsomes
T2 construct: from tissue; host or cells: rat liver microsomes, detergent (Triton X-100) disrupted
T2 sequence (P43428 1-357): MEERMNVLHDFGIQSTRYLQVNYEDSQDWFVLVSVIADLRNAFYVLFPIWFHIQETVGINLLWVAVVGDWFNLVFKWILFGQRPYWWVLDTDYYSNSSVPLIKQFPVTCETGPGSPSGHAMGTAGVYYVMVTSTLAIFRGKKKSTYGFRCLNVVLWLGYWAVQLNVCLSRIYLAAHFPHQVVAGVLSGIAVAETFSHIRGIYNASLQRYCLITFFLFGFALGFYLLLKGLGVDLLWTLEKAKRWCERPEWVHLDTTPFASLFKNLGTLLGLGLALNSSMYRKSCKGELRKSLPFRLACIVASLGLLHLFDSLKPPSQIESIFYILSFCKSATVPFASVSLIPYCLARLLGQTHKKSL
Procedure: as §1

[4] = system: phosphate/pyrophosphate translocase; test: effect on activity of phosphate/pyrophosphate translocase; type: biochemical, rat
[5] = system: fructose-induced gluconeogenesis; test: glucose output of isolated rat hepatocytes, fructose-induced gluconeogenesis; type: cell-based; conditions: Hepatocyte, read-out: IC50, inhibition of fructose-induced gluconeogenesis
Text: (§2) Kodaistatin A was further evaluated in isolated rat hepatocytes for its effect on glucose output.

[6] = system: glucagon-induced glycogenolysis; test: glucose output of isolated rat hepatocytes, glucagon-induced glycogenolysis; type: cell-based; conditions: Hepatocyte, read-out: IC50, inhibition of glucagon-induced glycogenolysis
Text: as §2

[7] = rat liver microsomes, read-out: approximate IC50, glucose-6-phosphate translocase (converted)

| Compound | IC50 [1, 7] | Solubility [2] | mode of inhibition of glucose-6-phosphate translocase [1] | IC50 ([1]; Example V, isolation and purification, read-out: IC50, glucose-6-phosphate translocase, material at stages of purification (converted)) | IC50 ([1]; rat liver microsomes, molar value in parentheses, read-out: approximate IC50, glucose-6-phosphate translocase (converted)) | IC50 [3] | IC50 ([3]; molar value in parentheses) | specificity for translocase over phosphatase ([3]; translocase vs phosphatase) | effect on activity of phosphate/pyrophosphate translocase [4] | IC50 [5] | IC50 [6] |
| --- | --- | --- | --- | --- | --- | --- | --- | --- | --- | --- | --- |
| CCC(C)C=C(C)C=CC(=O)CC1=C(c2cc(O)c(O)cc2C2=C(O)C(=Cc3ccc(O)cc3)OC2=O)C(O)(C(C)=O)C(O)C1=O (single isomer, unassigned) [Kodaistatin B] | ~476 nM | MeOH and DMSO | – | – | – | – | – | – | – | – | – |
| CCC(C)/C=C(C)/C=C/C(=O)CC1=C(c2cc(O)c(O)cc2C2=C(O)/C(=C/c3ccc(O)cc3)OC2=O)C(O)(C(C)=O)C(O)C1=O (centres unmarked) [Kodaistatin A] | ~317 nM | MeOH, CH3 CN and DMSO | reversible and competitive inhibitor | 317 nM | ~300 nM | ~317000 nM | ~300000 nM | high degree of specificity for translocase | did not affect the activity | ~25 µg/mL (≈ 39.6 µM) | ~50 µg/mL (≈ 79.3 µM) |
| CCC(C)C=C(C)C=CC(=O)CC1=C(c2cc(O)c(O)cc2C2=C(O)C(=Cc3ccc(O)c(O)c3)OC2=O)C(O)(C(C)=O)C(O)C1=O (centres unmarked) [Kodaistatin C] | ~139 nM | MeOH and DMSO | – | – | – | – | – | – | – | – | – |
| CCC(C)C=C(C)C=CC(=O)CC1=C(c2cc(O)c(O)cc2C2=C(O)C(=Cc3ccc(O)c(O)c3)OC2=O)C(O)(C(C)=O)C(O)C1=O (centres unmarked) [Kodaistatin D] | ~773 nM | MeOH and DMSO | – | – | – | – | – | – | – | – | – |
